In brackets after ≈: the same amount, converted by molar mass.
Experiments:
Experiment in all cases: in vitro antibacterial evaluation, MIC by broth dilution
Assay type in all cases: cell-based
[1] = test system: Escherichia coli; details: 18 hours at 35° C.
[2] = test system: Streptococcus sp.; details: broth dilution, 18 hours at 35° C.
How it was run: (§1)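 Inoculum 5×10^5 CFU/mL; concentrations 64 to 0.06 μg/mL; MIC defined as lowest inhibitory level. Conducted by broth dilution under NCCLS guidelines.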

[3] = test system: Staphylococcus sp.; details: broth dilution, 18 hours at 35° C.; for MIC Staphylococcus aureus (ATCC 29213): strain ATCC 29213; for MIC Staphylococcus aureus (GC 1131): strain GC 1131; for MIC Staphylococcus aureus (GC 3051): strain GC 3051; for MIC Staphylococcus aureus (GC 3053): strain GC 3053; for MIC Staphylococcus aureus (GC 4541): strain GC 4541; for MIC Staphylococcus aureus (GC 4542): strain GC 4542; for MIC Staphylococcus aureus-SMITH (GC 4543): strain GC 4543; for MIC Staphylococcus aureus (GC 4544): strain GC 4544; for MIC Staphylococcus aureus (GC 4545): strain GC 4545; for MIC Staphylococcus haemolyticus (GC 4546): strain GC 4546; for MIC Coagulase Negative Staphylococcus (GC 4547): strain GC 4547; for MIC Coagulase Negative Staphylococcus (GC 4548): strain GC 4548; for MIC Coagulase Negative Staphylococcus (GC 4549): strain GC 4549; for MIC Coagulase Negative Staphylococcus (GC 4551): strain GC 4551
How it was run: as §1

[4] = test system: Enterococcus sp.; details: broth dilution, 18 hours at 35° C.
How it was run: as §1

## CC(c1ccccc1)C1NC(=O)CNC(=O)C(CO)NC(=O)C(C(O)C2CNC(=N)N2C2OC(CO)C(O)C(O)C2O)NC(=O)C(C(O)C2CNC(=N)N2)NC(=O)C(Cc2ccc(OC3OC(CO)C(OC4OC5COC6(CC7CCC6(C)C7(C)C)OC5C(O)C4O)C(O)C3O)cc2)NC1=O (stereo not shown) [Example 215]
[1]
  MIC Escherichia coli (ATCC 25922): 32 µg/mL (≈ 22.4 µM)
  MIC Escherichia coli (GC 4559): 32 µg/mL (≈ 22.4 µM)
  MIC Escherichia coli (GC 4560): 1 µg/mL (≈ 0.7 µM)
[2]
  MIC Streptococcus agalactiae (GC 4564): <0.12 µg/mL
  MIC Streptococcus pneumoniae (ATCC 6301): <0.12 µg/mL
  MIC Streptococcus pneumoniae (GC 1894): <0.12 µg/mL
  MIC Streptococcus pneumoniae (GC 4565): <0.12 µg/mL
  MIC Streptococcus pyogenes (GC 4563): <0.12 µg/mL
[2]; inoculum 5×10^5 CFU/mL, strain ATCC 6301
  MIC Streptococcus pneumoniae (ATCC 6301): <0.12 µg/mL
[2]; inoculum 5×10^5 CFU/mL, strain GC 1894
  MIC Streptococcus pneumoniae (GC 1894): <0.12 µg/mL
[2]; inoculum 5×10^5 CFU/mL, strain GC 4563
  MIC Streptococcus pyogenes (GC 4563): <0.12 µg/mL
[2]; inoculum 5×10^5 CFU/mL, strain GC 4564
  MIC Streptococcus agalactiae (GC 4564): <0.12 µg/mL
[2]; inoculum 5×10^5 CFU/mL, strain GC 4565
  MIC Streptococcus pneumoniae (GC 4565): <0.12 µg/mL
[3]
  MIC Staphylococcus aureus (ATCC 29213): 0.5 µg/mL (≈ 0.35 µM)
  MIC Staphylococcus aureus (GC 1131): 0.5 µg/mL (≈ 0.35 µM)
  MIC Staphylococcus aureus (GC 3051): 0.5 µg/mL (≈ 0.35 µM)
  MIC Staphylococcus aureus (GC 3053): 1 µg/mL (≈ 0.7 µM)
  MIC Staphylococcus aureus (GC 4541): 0.5 µg/mL (≈ 0.35 µM)
  MIC Staphylococcus aureus (GC 4542): 0.5 µg/mL (≈ 0.35 µM)
  MIC Staphylococcus aureus-SMITH (GC 4543): <0.12 µg/mL
  MIC Staphylococcus aureus (GC 4544): 0.5 µg/mL (≈ 0.35 µM)
  MIC Staphylococcus aureus (GC 4545): 1 µg/mL (≈ 0.7 µM)
  MIC Staphylococcus haemolyticus (GC 4546): 0.5 µg/mL (≈ 0.35 µM)
  MIC Coagulase Negative Staphylococcus (GC 4547): 0.5 µg/mL (≈ 0.35 µM)
  MIC Coagulase Negative Staphylococcus (GC 4548): 0.5 µg/mL (≈ 0.35 µM)
  MIC Coagulase Negative Staphylococcus (GC 4549): <0.12 µg/mL
  MIC Coagulase Negative Staphylococcus (GC 4551): 0.5 µg/mL (≈ 0.35 µM)
[4]
  MIC Enterococcus avium (GC 4558): 0.5 µg/mL (≈ 0.35 µM)
  MIC Enterococcus faecalis (ATCC 29212): 0.5 µg/mL (≈ 0.35 µM)
  MIC Enterococcus faecalis (GC 2242): 1 µg/mL (≈ 0.7 µM)
  MIC Enterococcus faecalis (GC 2691): 1 µg/mL (≈ 0.7 µM)
  MIC Enterococcus faecalis (GC 3059): 1 µg/mL (≈ 0.7 µM)
  MIC Enterococcus faecalis (GC 4552): 1 µg/mL (≈ 0.7 µM)
  MIC Enterococcus faecalis (GC 4553): 0.5 µg/mL (≈ 0.35 µM)
  MIC Enterococcus faecalis (GC 4554): 1 µg/mL (≈ 0.7 µM)
  MIC Enterococcus faecalis (GC 6189): 1 µg/mL (≈ 0.7 µM)
  MIC Enterococcus faecium (GC 2243): 0.5 µg/mL (≈ 0.35 µM)
  MIC Enterococcus faecium (GC 4556): 1 µg/mL (≈ 0.7 µM)
  MIC Enterococcus faecium (GC 4557): 0.5 µg/mL (≈ 0.35 µM)
[4]; inoculum 5×10^5 CFU/mL, strain ATCC 29212
  MIC Enterococcus faecalis (ATCC 29212): 0.5 µg/mL (≈ 0.35 µM)
[4]; inoculum 5×10^5 CFU/mL, strain GC 2242
  MIC Enterococcus faecalis (GC 2242): 1 µg/mL (≈ 0.7 µM)
[4]; inoculum 5×10^5 CFU/mL, strain GC 2243
  MIC Enterococcus faecium (GC 2243): 0.5 µg/mL (≈ 0.35 µM)
[4]; inoculum 5×10^5 CFU/mL, strain GC 2691
  MIC Enterococcus faecalis (GC 2691): 1 µg/mL (≈ 0.7 µM)
[4]; inoculum 5×10^5 CFU/mL, strain GC 3059
  MIC Enterococcus faecalis (GC 3059): 1 µg/mL (≈ 0.7 µM)
[4]; inoculum 5×10^5 CFU/mL, strain GC 4552
  MIC Enterococcus faecalis (GC 4552): 1 µg/mL (≈ 0.7 µM)
[4]; inoculum 5×10^5 CFU/mL, strain GC 4553
  MIC Enterococcus faecalis (GC 4553): 0.5 µg/mL (≈ 0.35 µM)
[4]; inoculum 5×10^5 CFU/mL, strain GC 4554
  MIC Enterococcus faecalis (GC 4554): 1 µg/mL (≈ 0.7 µM)
[4]; inoculum 5×10^5 CFU/mL, strain GC 4556
  MIC Enterococcus faecium (GC 4556): 1 µg/mL (≈ 0.7 µM)
[4]; inoculum 5×10^5 CFU/mL, strain GC 4557
  MIC Enterococcus faecium (GC 4557): 0.5 µg/mL (≈ 0.35 µM)
[4]; inoculum 5×10^5 CFU/mL, strain GC 4558
  MIC Enterococcus avium (GC 4558): 0.5 µg/mL (≈ 0.35 µM)
[4]; inoculum 5×10^5 CFU/mL, strain GC 6189
  MIC Enterococcus faecalis (GC 6189): 1 µg/mL (≈ 0.7 µM)

## CC(c1ccccc1)C1NC(=O)CNC(=O)C(CO)NC(=O)C(CC2CN(Cc3ccccc3)C(=N)N2C2OC(CO)C(O)C(O)C2O)NC(=O)C(CC2CNC(=N)N2)NC(=O)C(Cc2ccc(OC3OC(CO)C(OC4OC5COC6(OC5C(O)C4O)C4CC5CC(C4)CC6C5)C(O)C3O)cc2)NC1=O (stereo not drawn) [Example 80, Cyclo[3-(2-iminoimidazolidin-4-yl)alanyl-3-(1-benzyl-3-hexopyranosyl-2-iminoimidazolidin-4-yl)alanylserylglycyl-β-methylphenylalanyl-O-[4-O-[4,6-O-(2-adamantylidene)hexopyranosyl]hexopyranosyl]tyrosyl]]
[1]
  MIC Escherichia coli (ATCC 25922): >64 µg/mL
  MIC Escherichia coli (GC 4559): >64 µg/mL
  MIC Escherichia coli (GC 4560): 8 µg/mL (≈ 5.38 µM)
[2]
  MIC Streptococcus agalactiae (GC 4564): 8 µg/mL (≈ 5.38 µM)
  MIC Streptococcus pneumoniae (ATCC 6301): 8 µg/mL (≈ 5.38 µM)
  MIC Streptococcus pneumoniae (GC 1894): 4 µg/mL (≈ 2.69 µM)
  MIC Streptococcus pneumoniae (GC 4565): 16 µg/mL (≈ 10.8 µM)
  MIC Streptococcus pyogenes (GC 4563): 8 µg/mL (≈ 5.38 µM)
[2]; strain ATCC 6301
  MIC Streptococcus pneumoniae (ATCC 6301): 8 µg/mL (≈ 5.38 µM)
[2]; strain GC 1894
  MIC Streptococcus pneumoniae (GC 1894): 4 µg/mL (≈ 2.69 µM)
[2]; strain GC 4563
  MIC Streptococcus pyogenes (GC 4563): 8 µg/mL (≈ 5.38 µM)
[2]; strain GC 4564
  MIC Streptococcus agalactiae (GC 4564): 8 µg/mL (≈ 5.38 µM)
[2]; strain GC 4565
  MIC Streptococcus pneumoniae (GC 4565): 16 µg/mL (≈ 10.8 µM)
[3]
  MIC Staphylococcus aureus (ATCC 29213): 32 µg/mL (≈ 21.5 µM)
  MIC Staphylococcus aureus (GC 1131): 32 µg/mL (≈ 21.5 µM)
  MIC Staphylococcus aureus (GC 3051): 32 µg/mL (≈ 21.5 µM)
  MIC Staphylococcus aureus (GC 3053): 64 µg/mL (≈ 43.1 µM)
  MIC Staphylococcus aureus (GC 4541): 32 µg/mL (≈ 21.5 µM)
  MIC Staphylococcus aureus (GC 4542): 32 µg/mL (≈ 21.5 µM)
  MIC Staphylococcus aureus-SMITH (GC 4543): 32 µg/mL (≈ 21.5 µM)
  MIC Staphylococcus aureus (GC 4544): 32 µg/mL (≈ 21.5 µM)
  MIC Staphylococcus aureus (GC 4545): 32 µg/mL (≈ 21.5 µM)
  MIC Staphylococcus haemolyticus (GC 4546): 32 µg/mL (≈ 21.5 µM)
  MIC Coagulase Negative Staphylococcus (GC 4547): 32 µg/mL (≈ 21.5 µM)
  MIC Coagulase Negative Staphylococcus (GC 4548): 32 µg/mL (≈ 21.5 µM)
  MIC Coagulase Negative Staphylococcus (GC 4549): 32 µg/mL (≈ 21.5 µM)
  MIC Coagulase Negative Staphylococcus (GC 4551): 32 µg/mL (≈ 21.5 µM)
[3]; strain GC 6257
  MIC Coagulase Negative Staphylococcus (GC 6257): 8 µg/mL (≈ 5.38 µM)
[4]; Enterococcus avium (GC 4558)
  MIC Enterococcus avium (GC 4558): 32 µg/mL (≈ 21.5 µM)
[4]; Enterococcus faecalis (ATCC 29212)
  MIC Enterococcus faecalis (ATCC 29212): 64 µg/mL (≈ 43.1 µM)
[4]; Enterococcus faecalis (GC 4552)
  MIC Enterococcus faecalis (GC 4552): 64 µg/mL (≈ 43.1 µM)
[4]; Enterococcus faecalis (GC 4553)
  MIC Enterococcus faecalis (GC 4553): 32 µg/mL (≈ 21.5 µM)
[4]; Enterococcus faecalis (GC 4554)
  MIC Enterococcus faecalis (GC 4554): 64 µg/mL (≈ 43.1 µM)
[4]; Enterococcus faecalis (GC 6189)
  MIC Enterococcus faecalis (GC 6189): 64 µg/mL (≈ 43.1 µM)
[4]; Enterococcus faecium (GC 2243)
  MIC Enterococcus faecium (GC 2243): 32 µg/mL (≈ 21.5 µM)
[4]; Enterococcus faecium (GC 4556)
  MIC Enterococcus faecium (GC 4556): 64 µg/mL (≈ 43.1 µM)
[4]; Enterococcus faecium (GC 4557)
  MIC Enterococcus faecium (GC 4557): 16 µg/mL (≈ 10.8 µM)
[4]
  MIC Enterococcus avium (GC 4558): 32 µg/mL (≈ 21.5 µM)
  MIC Enterococcus faecalis (ATCC 29212): 64 µg/mL (≈ 43.1 µM)
  MIC Enterococcus faecalis (GC 2242): 32 µg/mL (≈ 21.5 µM)
  MIC Enterococcus faecalis (GC 2691): 64 µg/mL (≈ 43.1 µM)
  MIC Enterococcus faecalis (GC 3059): 64 µg/mL (≈ 43.1 µM)
  MIC Enterococcus faecalis (GC 4552): 64 µg/mL (≈ 43.1 µM)
  MIC Enterococcus faecalis (GC 4553): 32 µg/mL (≈ 21.5 µM)
  MIC Enterococcus faecalis (GC 4554): 64 µg/mL (≈ 43.1 µM)
  MIC Enterococcus faecalis (GC 6189): 64 µg/mL (≈ 43.1 µM)
  MIC Enterococcus faecium (GC 2243): 32 µg/mL (≈ 21.5 µM)
  MIC Enterococcus faecium (GC 4556): 64 µg/mL (≈ 43.1 µM)
  MIC Enterococcus faecium (GC 4557): 16 µg/mL (≈ 10.8 µM)
[4]; strain GC 2242
  MIC Enterococcus faecalis (GC 2242): 32 µg/mL (≈ 21.5 µM)
[4]; strain GC 2691
  MIC Enterococcus faecalis (GC 2691): 64 µg/mL (≈ 43.1 µM)
[4]; strain GC 3059
  MIC Enterococcus faecalis (GC 3059): 64 µg/mL (≈ 43.1 µM)
